Reference: paper PMC10547168, “Cell cycle-dependent organization of a bacterial centromere through multi-layered regulation of the ParABS system” (PLOS Genetics, 2023)

Biological target: T1, ParBBb (Bdellovibrio bacteriovorus, UniProt Q6MGM0)
T1 construct: gene parB; C-terminal 6xHis tag kept (pET21), expressed in E. coli BL21(DE3); HisTrap and Superdex 75 purified; dimer
T1 sequence (Q6MGM0 1-337): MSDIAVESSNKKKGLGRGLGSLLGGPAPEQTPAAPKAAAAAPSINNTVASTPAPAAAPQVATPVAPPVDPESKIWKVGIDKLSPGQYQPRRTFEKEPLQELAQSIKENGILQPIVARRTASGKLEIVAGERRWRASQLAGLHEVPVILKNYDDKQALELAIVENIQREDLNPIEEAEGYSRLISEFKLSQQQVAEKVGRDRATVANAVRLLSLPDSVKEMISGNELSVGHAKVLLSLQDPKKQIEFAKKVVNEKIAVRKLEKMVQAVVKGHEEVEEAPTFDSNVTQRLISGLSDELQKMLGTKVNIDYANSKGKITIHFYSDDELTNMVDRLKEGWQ
Assay: EnzChek phosphate release assay (A360)
Assay type: biochemical
Settings: 1 mM NTP, 1 uM ParBBb, 22 bp parSBb DNA duplex, Mg2+, Tris pH 8.0, 25 °C

SMILES: Nc1ccn([C@@H]2O[C@H](COP(=O)(O)OP(=O)(O)OP(=O)(O)O)[C@@H](O)[C@H]2O)c(=O)n1 [CTP]
- EnzChek phosphate release assay (A360): ParBBb hydrolyses CTP but no other NTPs in the presence of parSBb
